From ChEMBL document CHEMBL5550216, “Discovery of Triazolopyrimidine Derivatives as Selective P2X3 Receptor Antagonists Binding to an Unprecedented Allosteric Site as Evidenced by Cryo-Electron Microscopy” (J Med Chem, 2024) come the findings set out here.

Data set [1] is described as follows: Permeability of compound at 10 uM incubated for 4 hrs by PAMPA. The data set is classed as ADME. To be noted: read-out: permeability.
A short description of data set [2]: Metabolic stability in human liver microsomes assessed as compound remaining at 100 uM preincubated for 10 mins followed by NADPH addition and measured after 30 mins by LC-MS/MS analysis. The class given is ADME, Microsome. As to conditions: time 40 min, read-out: Stability.
Data set [3] in a line: Metabolic stability in rat liver microsomes assessed as compound remaining at 100 uM preincubated for 10 mins followed by NADPH addition and measured after 30 mins by LC-MS/MS analysis. The class given is ADME, Microsome. To be noted: time 40 min, read-out: Stability.
Data set [4] in a line: Metabolic stability in mouse liver microsomes assessed as compound remaining at 100 uM preincubated for 10 mins followed by NADPH addition and measured after 30 mins by LC-MS/MS analysis. To be noted: time 40 min, read-out: Stability. The class given is ADME, Microsome.
The target of the next data set is T1, P2X purinoceptor 3 (Homo sapiens, UniProt P56373).
T1 sequence (P56373 whole entry): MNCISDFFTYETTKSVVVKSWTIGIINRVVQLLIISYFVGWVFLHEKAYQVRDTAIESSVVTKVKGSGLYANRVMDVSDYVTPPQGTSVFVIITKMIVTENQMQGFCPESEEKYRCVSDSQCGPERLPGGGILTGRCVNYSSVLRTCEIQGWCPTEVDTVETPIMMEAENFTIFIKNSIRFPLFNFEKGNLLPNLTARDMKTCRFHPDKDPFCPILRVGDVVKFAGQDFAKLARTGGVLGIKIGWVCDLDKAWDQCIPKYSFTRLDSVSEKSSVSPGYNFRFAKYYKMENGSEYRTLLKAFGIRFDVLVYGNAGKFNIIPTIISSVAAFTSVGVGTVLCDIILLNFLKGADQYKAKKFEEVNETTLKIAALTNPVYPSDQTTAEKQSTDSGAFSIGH
The data set is described as follows: Antagonist activity at human P2X3R expressed in HEK293 cells incubated for 18 hrs by Fluo-4 dye based microplate reader assay.

For data set [5], the target named is T2, P2X2/P2X3 heterotrimeric receptor (Homo sapiens, UniProt P56373+Q9UBL9).
T2 sequence (Q9UBL9 whole entry): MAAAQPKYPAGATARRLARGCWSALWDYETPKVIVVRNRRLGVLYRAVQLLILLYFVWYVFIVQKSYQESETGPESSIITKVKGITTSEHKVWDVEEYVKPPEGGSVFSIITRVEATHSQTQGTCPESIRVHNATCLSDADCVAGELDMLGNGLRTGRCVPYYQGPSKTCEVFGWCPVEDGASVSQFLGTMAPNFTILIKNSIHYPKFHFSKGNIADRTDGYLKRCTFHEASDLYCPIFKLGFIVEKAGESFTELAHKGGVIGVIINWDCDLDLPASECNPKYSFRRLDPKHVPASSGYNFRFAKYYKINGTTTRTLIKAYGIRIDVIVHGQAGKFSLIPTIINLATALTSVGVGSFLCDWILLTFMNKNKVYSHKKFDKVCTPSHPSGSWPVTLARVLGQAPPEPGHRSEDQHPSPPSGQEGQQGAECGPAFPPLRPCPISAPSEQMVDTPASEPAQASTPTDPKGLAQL
T2 sequence (P56373 whole entry): T1 sequence (P56373 whole entry)
The experiment in a line: Antagonist activity at human P2X2/3R expressed in HEK293 cells incubated for 18 hrs by Fluo-4 dye based microplate reader assay.

In data set [6] the target is T2, P2X2/P2X3 heterotrimeric receptor. The experiment in a line: Antagonist activity at human P2X2/3 receptor expressed in HEK293 cells preincubated for 30 mins followed by alpha, beta me-ATP addition and measured for 10 mins by Fluo-8 dye based FLIPR assay.
For the next data set, the target named is T3, P2X purinoceptor 1 (Homo sapiens, UniProt P51575).
T3 sequence (P51575 whole entry): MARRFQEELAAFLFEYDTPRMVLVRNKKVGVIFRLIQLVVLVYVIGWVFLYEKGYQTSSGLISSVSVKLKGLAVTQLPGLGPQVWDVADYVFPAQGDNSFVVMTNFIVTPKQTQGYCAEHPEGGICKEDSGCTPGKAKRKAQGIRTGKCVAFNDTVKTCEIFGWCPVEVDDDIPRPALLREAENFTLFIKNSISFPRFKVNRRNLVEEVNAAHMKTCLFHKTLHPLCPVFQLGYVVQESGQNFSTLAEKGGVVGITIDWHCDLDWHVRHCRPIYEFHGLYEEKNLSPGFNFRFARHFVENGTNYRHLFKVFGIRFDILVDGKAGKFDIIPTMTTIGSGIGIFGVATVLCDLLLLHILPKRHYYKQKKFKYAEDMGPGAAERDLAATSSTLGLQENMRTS
The data set is described as follows: Antagonist activity at human P2X1 receptor expressed in 1321N1 cells incubated for 30 mins in presence of ATP by Fluo-4 dye based microplate reader assay. The data set is classed as cell-based.

A further data set concerns the target T4, P2X purinoceptor 4 (Homo sapiens, UniProt Q99571).
T4 sequence (Q99571 whole entry): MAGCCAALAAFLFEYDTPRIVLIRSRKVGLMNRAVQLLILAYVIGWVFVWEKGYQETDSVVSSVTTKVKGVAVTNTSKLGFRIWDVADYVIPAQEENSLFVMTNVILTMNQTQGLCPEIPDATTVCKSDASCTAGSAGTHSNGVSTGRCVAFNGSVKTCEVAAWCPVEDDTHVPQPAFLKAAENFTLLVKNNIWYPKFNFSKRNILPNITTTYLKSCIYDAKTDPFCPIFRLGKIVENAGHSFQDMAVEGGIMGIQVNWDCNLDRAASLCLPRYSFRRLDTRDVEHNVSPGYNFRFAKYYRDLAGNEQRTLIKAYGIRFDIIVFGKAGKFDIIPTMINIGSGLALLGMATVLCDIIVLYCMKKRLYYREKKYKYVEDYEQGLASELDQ
The data set is described as follows: Antagonist activity at human P2X4 receptor expressed in 1321N1 cells incubated for 30 mins in presence of ATP by Fluo-4 dye based microplate reader assay. The class given is cell-based.

The target of the next data set is T5, P2X purinoceptor 7 (Homo sapiens, UniProt Q99572).
T5 sequence (Q99572 whole entry): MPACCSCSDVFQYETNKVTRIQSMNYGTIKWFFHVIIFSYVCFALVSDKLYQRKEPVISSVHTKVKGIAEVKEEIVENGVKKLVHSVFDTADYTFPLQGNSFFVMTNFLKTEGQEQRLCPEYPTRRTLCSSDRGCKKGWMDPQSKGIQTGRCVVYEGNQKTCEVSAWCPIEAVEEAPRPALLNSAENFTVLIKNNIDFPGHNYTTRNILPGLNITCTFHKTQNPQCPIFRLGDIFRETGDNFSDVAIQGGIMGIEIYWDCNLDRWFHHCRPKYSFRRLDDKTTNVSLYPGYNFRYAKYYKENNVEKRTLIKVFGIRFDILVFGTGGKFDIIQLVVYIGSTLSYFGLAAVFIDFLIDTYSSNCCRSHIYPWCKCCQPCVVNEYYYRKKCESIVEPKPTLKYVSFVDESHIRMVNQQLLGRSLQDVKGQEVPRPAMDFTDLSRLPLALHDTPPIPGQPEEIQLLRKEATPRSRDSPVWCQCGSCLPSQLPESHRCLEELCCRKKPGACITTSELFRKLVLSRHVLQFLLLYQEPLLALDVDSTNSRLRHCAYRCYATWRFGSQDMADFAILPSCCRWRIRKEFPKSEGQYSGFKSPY
The data set is described as follows: Antagonist activity at human P2X7 receptor expressed in 1321N1 cells incubated for 30 mins in presence of Bz-ATP by Fluo-4 dye based microplate reader assay. The data set is classed as cell-based.

On to `NC(=O)N1c2ccccc2C=Cc2ccccc21` [CARBAMAZEPINE], for which, in data set [1], the Papp at 4 h, 10 µM was 5.41 ×10⁻⁶ cm/s.

Consider `CC(C)(C)NCC(O)COc1cccc2c1CC(O)C(O)C2` (stereo not drawn) [NADOLOL], for which the Papp at 4 h, 10 µM in [1] is below 0.0185 ×10⁻⁶ cm/s.

Turning to `CC(=O)N1CCN(c2cc(N[C@H](C)c3ccc4ccccc4c3)n3nc(C4CCCC4)nc3n2)CC1`, the remaining at 0.5 h, 100 µM in data set [2] came to 33.2%; in data set [3], 4.2%; in [4] it was 15.2%.

On to `CC(=O)N1CCN(c2cc(N[C@H](C)c3ccc4ccccc4c3)n3nc(C4CCC4)nc3n2)CC1`, for which the remaining at 0.5 h, 100 µM was determined as 28.3% in data set [2], 0.2% in data set [3] and 18% in data set [4].

As for `CNC(=O)c1cc(F)c(-c2nc3cc(C)ccn3c2CC2CCCN(C(=O)OC)C2)c(F)c1` (single isomer, unassigned), the IC50 on P2X purinoceptor 3 was 0.0155 µM; in data set [5] it was 5.06 µM; in data set [6], above 24 µM.

Regarding `C[C@@H](Nc1cc(N2CCN(C(N)=O)CC2)nc2nc(C3CC3)nn12)c1ccc2ccccc2c1`, the remaining at 0.5 h, 100 µM in data set [2] is 50.2%; in [3] it was 0.3%; in data set [4], 50.6%. For the same molecule, the Papp at 4 h, 10 µM in [1] is below 0.0185 ×10⁻⁶ cm/s. Further, the IC50 on P2X purinoceptor 1 was 4.28 µM; on P2X purinoceptor 4 it was above 10 µM; at P2X purinoceptor 7 it was above 10 µM.
